{
  "source": "patent US20030143633A1",
  "about": "“Factors participating in degranulation of mast cells, dnas encoding the same, method of screening of these factors and the inhibitors” (priority 2000, published 2003)",
  "molecules": {"B1": {"name": "mG#101: recombinant mouse first Rab protein, SEQ ID NO: 1 (protein)", "chain": "MLLGDSGVGKTCFLIQFKDGAFLSGTFIATVGIDFRNKVVTVDGXRVKLQIWDTAGQERFRSVTHAYYRDAQALLLLYDITNKSSFDNIRAWLTEIHEYAQRDVVIMLLGNKADXSSERVIRSEDGETLAREYGVPFXETSAKTGMNVELAFLAIAKELKYRAGXQXDEPSFQIRDYVESQKKRSSCCSFV", "modifications": "Mus musculus or Homo sapiens; (45) Ala or Val."}, "B2": {"name": "mG#102: recombinant mouse second Rab protein, SEQ ID NO: 4 (protein)", "chain": "MQTPHKEHLYKLLVIGDLGVGKTSIIKRYVHQNFSSHYRATIGVDFALKVLHWDPETVVRLQLWDIAGQERFGNMTRVYYREAMGAFIVFDVTRPATFEAVAKWKNDLDSKLXLPNGKPVSVVLLANKCDQGKDVLMNNGLKMDQFCKEHGFVGWFETSAKENINIDEASRCLVKHILANECDLXESIEPDXVKPHLTSXKVXSCSGCAKS", "modifications": "Mus musculus or Homo sapiens; (113) Thr or Ser."}},
  "key": {"[1]": {"test_system": "interaction between mG#102 and mA#10283", "test": "Two-hybrid recombinant yeast #102 strain growth in histidine defective medium", "assay_type": "cell-based, S. cerevisiae", "conditions": "for specific suppression of #102 strain growth (in words): compared with VT strain; for Suppression (% control) of growth of yeast strain, #102 strain: turbidity 590 nm, 18-20 hr", "protocol": "(§1) Two expression vectors respectively incorporating mG#102 in pAS2-1 vector and mA#10283 in pACT2 vector were introduced into S. cerevisiae CG1945 strain to give a recombinant yeast #102 strain (see Example 3). As a control, recombinant yeast VT strain into which plasmid for positive control (pVA3-1, pTD1-1) of MATCHMAKER Two-Hybrid System 2 had been introduced was prepared. The culture media of #102 strain and VT strain that reached confluent by shake culture overnight at 30° C. in an SD medium supplemented with histidine were diluted 200-fold with a fresh histidine defective SD medium (containing 1 mM 3-AT) and dispensed to a 96 well plate by 0.09 ml/well. A PBS solution containing a compound whose effect is desired to be examined was added to each well, PBS was added to the well of 100% control, and 1M 3-AT-containing PBS solution was added to the well of 0% control respectively in a volume of 0.01 ml/well and mixed by a plate shaker MicroMixer E-36 (manufactured by TAITEC). Then, after static culture at 30° C. for 18-20 hr, culture media were suspended in a plate shaker, and turbidity (absorbance at 590 nm) was measured with a 96 well plate spectrophotometer Multiskan BICHROMATIC (manufactured by Labsystems) The data of the turbidity measured were evaluated on conversion to % control based on the turbidity data of 100% control and 0% control. When a common effect appears between the #102 strain and the VT strain, it was considered a nonspecific effect on the two-hybrid system rather than an effect on the interaction between mG#102 and mA#10283.\n(§2) Using the system shown in Example 7, 0.09 ml each of #102 strain yeast or VT strain yeast (control) was placed in each well of a 96 well plate, and a PBS solution containing a particular compound which is unknown as to its effect on the interaction between mG#102 and mA#10283 was added by 0.01 ml, which was followed by culture at 30° C. for 18-20 hr. Then, the culture medium was suspended in a plate shaker and the turbidity (absorbance at 590 nm) was measured with a 96 well plate absorbance meter. The turbidity of the well to which PBS solution without the compound was added was taken as 100% control and the turbidity of the well to which PBS solution containing 3-AT (final concentration 100 mM) instead of the compound was added was taken as 0% control, and the effect of the compound was evaluated by conversion to percentage."}, "[2]": {"test_system": "interaction between mG#102 and mA#10283", "test": "Two-hybrid recombinant yeast #102 strain growth in histidine defective medium", "assay_type": "cell-based, S. cerevisiae", "conditions": "histidine defective SD medium"}, "VT strain [3]": {"test_system": "VT strain", "test": "Two-hybrid positive control recombinant yeast VT strain growth (nonspecific effect control)", "assay_type": "cell-based, S. cerevisiae"}, "VT strain [4]": {"test_system": "VT strain", "test": "Two-hybrid positive control recombinant yeast VT strain growth (nonspecific effect control)", "assay_type": "cell-based, S. cerevisiae", "conditions": "turbidity 590 nm, 18-20 hr", "protocol": "as §1, §2"}, "[5]": {"test_system": "mouse bone marrow-derived mast cells (BMMC)", "test": "IgE/DNP-HSA antigen-induced degranulation of BMMC (hexosaminidase release)", "assay_type": "cell-based", "conditions": "for Suppression (% control) of degranulation of mast cell: fluorescence of control group without compound = 100%", "protocol": "BMMC prepared by the method shown in Example 1 was suspended in 10% FBS-containing RPMI at a concentration of 3×10^6/ml. To this BMMC was added a mouse monoclonal anti-DNP IgE antibody (manufactured by YAMASA) at 3 μg/ml, and the mixture was stood at room temperature for 30 min. Then, BMMC treated with an IgE antibody was washed with buffer A (133 mM NaCl, 5 mM KCl, 0.9 mM NaH2PO4, 8 mM glucose, 1 mg/ml BSA, 0.01 mM CaCl2, 20 mM HEPES, pH 7.4) and suspended in buffer A containing 1 mM CaCl2 at a concentration of 3×10^6/ml. This BMMC suspension (0.1 ml/well) was added in a 96 well multiplate and a solution of the compound to be examined (0.05 ml/well) and a DNP-HSA (manufactured by Sigma) solution (40 ng/ml, 0.05 ml/well) as an antigen were added. After standing at room temperature for 30 min, the mixture was centrifuged at 1000 rpm for 5 min and the supernatant was recovered for the 96 well multiplate by 0.05 ml/well. To this supernatant was added a 4-methylumbelliferyl-2-acetamide-2-deoxy-β-D-glucopyranoside (manufactured by Funakoshi Co., Ltd., substrate of hexosaminidase) solution (1 mM; in 0.2 M citrate buffer (pH 4.5)) at 0.05 ml/well. After standing at 37° C. for 90 min, 1M Tris solution (0.15 ml) was added to stop the reaction, and the amount of fluorescence in each well was measured by fluoroscan (manufactured by Labo Systems). The suppressive effect of the compound on the degranulation of BMMC was calculated based on the amount of fluorescence in the control group free of addition of the compound as 100%. As a control compound, tranilast was used."}, "BMMC": {"test_system": "BMMC", "test": "BMMC digitonin degranulation system (histamine release)", "assay_type": "cell-based, mouse", "conditions": "protein added to digitonin-permeabilised BMMC, CaCl2 stimulation, histamine RIA", "protocol": "The recombinant protein was added to a BMMC digitonin degranulation system to examine the effect. BMMC was washed twice with a buffer having the following composition to give a suspension at 2×10^6 cells/ml and dispensed to a 96-well U-bottom plate by 0.05 ml/well. Then, mG#101 or mG#102 recombinant protein (0.05 ml/well) was added. Furthermore, 4.5 μM digitonin was added by 0.05 ml/well and the plate was stood at room temperature for 5 min. Thereafter 4 mM CaCl2 was added by 0.05 ml/well and the plate was stood at room temperature for 10 min. After standing, the concentration of histamine liberated in the supernatant was determined by a histamine RIA kit (Eiken Chemical Co., Ltd.). buffer composition:\nThe recombinant protein was added to the digitonin degranulation system (see Example 5) and the effect was examined."}, "[6]": {"conditions": "compound concentration 0.3 μg/ml"}, "[7]": {"conditions": "compound concentration 10 μg/ml"}, "[8]": {"conditions": "compound concentration 30 μg/ml"}},
  "data": [
    {"molecule": "Nc1nc[nH]n1", "note": "[Formula 3-AT, 3-amino-1,2,4-triazole]", "values": [
      {"measurement": "growth of recombinant yeast strain with 100 mM 3-AT (in words)", "setting": "[1]; #102 strain, 100 mM 3-AT", "result": "neither recombinant yeast strain could grow"},
      {"measurement": "concentration of 3-AT wherein the recombinant yeast strain grows in a reporter gene (histidine synthase)-dependent manner", "setting": "[2]", "result": "1 to 10", "unit": "mM"},
      {"measurement": "growth of recombinant yeast strain with 100 mM 3-AT (in words)", "setting": "VT strain [3]; 100 mM 3-AT", "result": "neither recombinant yeast strain could grow"},
      {"measurement": "concentration of 3-AT wherein the recombinant yeast strain grows in a reporter gene (histidine synthase)-dependent manner", "setting": "VT strain [3]; histidine defective SD medium", "result": "1 to 10", "unit": "mM"}
    ]},
    {"molecule": "CC(C)=NNc1nc(-c2ccc(-c3ccccc3)cc2)cs1", "note": "[Formula [III], acetone-4-(4-phenyl)phenyl-1,3-thiazol-2-yl-hydrazone]", "values": [
      {"measurement": "specific suppression of #102 strain growth (in words)", "setting": "[1]", "result": "specifically suppressed #1022 strain in a dose-dependent manner"},
      {"measurement": "Suppression (% control) of growth of yeast strain, #102 strain", "setting": "[1]; [6]", "result": 99, "unit": "% control"},
      {"measurement": "Suppression (% control) of growth of yeast strain, #102 strain", "setting": "[1]; compound concentration 1 μg/ml", "result": 57, "unit": "% control"},
      {"measurement": "Suppression (% control) of growth of yeast strain, #102 strain", "setting": "[1]; compound concentration 3 μg/ml", "result": 4, "unit": "% control"},
      {"measurement": "Suppression (% control) of growth of yeast strain, #102 strain", "setting": "[1]; [7]", "result": 1, "unit": "% control"},
      {"measurement": "Suppression (% control) of growth of yeast strain, VT strain", "setting": "VT strain [4]; [6]", "result": 99, "unit": "% control"},
      {"measurement": "Suppression (% control) of growth of yeast strain, VT strain", "setting": "VT strain [4]; compound concentration 1 μg/ml", "result": 85, "unit": "% control"},
      {"measurement": "Suppression (% control) of growth of yeast strain, VT strain", "setting": "VT strain [4]; compound concentration 3 μg/ml", "result": 77, "unit": "% control"},
      {"measurement": "Suppression (% control) of growth of yeast strain, VT strain", "setting": "VT strain [4]; [7]", "result": 63, "unit": "% control"},
      {"measurement": "suppression of degranulation of mast cells (in words)", "setting": "[5]", "result": "suppressed degranulation of mast cells in a dose-dependent manner"},
      {"measurement": "Suppression (% control) of degranulation of mast cell", "setting": "[5]; concentration 1 μg/ml", "result": 102, "unit": "% control"},
      {"measurement": "Suppression (% control) of degranulation of mast cell", "setting": "[5]; concentration 3 μg/ml", "result": 87, "unit": "% control"},
      {"measurement": "Suppression (% control) of degranulation of mast cell", "setting": "[5]; concentration 10 μg/ml", "result": 39, "unit": "% control"},
      {"measurement": "Suppression (% control) of degranulation of mast cell", "setting": "[5]; concentration 30 μg/ml", "result": 20, "unit": "% control"},
      {"measurement": "Suppression (% control) of degranulation of mast cell", "setting": "[5]; concentration 100 μg/ml", "result": 6, "unit": "% control"}
    ]},
    {"molecule": "O=C(N/N=C/c1ccc([N+](=O)[O-])o1)c1ccccc1Br", "note": "[Formula [IV], 5-nitro-2-furaldehyde-2-brombenzoylhydrazne]", "values": [
      {"measurement": "specific suppression of #102 strain growth (in words)", "setting": "[1]", "result": "specifically suppressed #1022 strain in a dose-dependent manner"},
      {"measurement": "Suppression (% control) of growth of yeast strain, #102 strain", "setting": "[1]; compound concentration 1 μg/ml", "result": 99, "unit": "% control"},
      {"measurement": "Suppression (% control) of growth of yeast strain, #102 strain", "setting": "[1]; compound concentration 3 μg/ml", "result": 99, "unit": "% control"},
      {"measurement": "Suppression (% control) of growth of yeast strain, #102 strain", "setting": "[1]; [7]", "result": 36, "unit": "% control"},
      {"measurement": "Suppression (% control) of growth of yeast strain, #102 strain", "setting": "[1]; [8]", "result": "−2", "unit": "% control"},
      {"measurement": "Suppression (% control) of growth of yeast strain, VT strain", "setting": "VT strain [4]; compound concentration 1 μg/ml", "result": 102, "unit": "% control"},
      {"measurement": "Suppression (% control) of growth of yeast strain, VT strain", "setting": "VT strain [4]; compound concentration 3 μg/ml", "result": 102, "unit": "% control"},
      {"measurement": "Suppression (% control) of growth of yeast strain, VT strain", "setting": "VT strain [4]; [7]", "result": 98, "unit": "% control"},
      {"measurement": "Suppression (% control) of growth of yeast strain, VT strain", "setting": "VT strain [4]; [8]", "result": 63, "unit": "% control"}
    ]},
    {"molecule": "COc1ccc(/C=C/C(=O)Nc2ccccc2C(=O)O)cc1OC", "note": "[tranilast, reference compound]", "values": [
      {"measurement": "Suppression (% control) of degranulation of mast cell", "setting": "[5]; concentration 1 μg/ml", "result": 96, "unit": "% control"},
      {"measurement": "Suppression (% control) of degranulation of mast cell", "setting": "[5]; concentration 3 μg/ml", "result": 90, "unit": "% control"},
      {"measurement": "Suppression (% control) of degranulation of mast cell", "setting": "[5]; concentration 10 μg/ml", "result": 78, "unit": "% control"},
      {"measurement": "Suppression (% control) of degranulation of mast cell", "setting": "[5]; concentration 30 μg/ml", "result": 52, "unit": "% control"},
      {"measurement": "Suppression (% control) of degranulation of mast cell", "setting": "[5]; concentration 100 μg/ml", "result": 22, "unit": "% control"}
    ]},
    {"molecule": "B1", "values": [
      {"measurement": "effect of recombinant protein on degranulation (in words)", "setting": "BMMC", "result": "inhibited degranulation in a concentration dependent manner"}
    ]},
    {"molecule": "B2", "values": [
      {"measurement": "effect of recombinant protein on degranulation (in words)", "setting": "BMMC", "result": "inhibited degranulation in a concentration dependent manner"}
    ]}
  ]
}
